Data: the supplement of paper PMC10733146

Assays:
Test in all cases: viability relative to DMSO control (fraction); higher = less drug effect (more viable cells)
Conditions in all cases: 48 h
[1] = tested on: primary AML patient cells (S017)
Outline: (§1)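 Using 384-well plates with compounds already plated at five concentrations, one well per concentration, 4 × 10^4 primary mononuclear tumour cells were added per well. Cells were Ficoll-isolated from blood or bone marrow or came from processed lymph node, fresh or cryopreserved. They were kept for 48 h at 37 °C and 5% CO2 in RPMI-1640 supplemented with penicillin/streptomycin, L-glutamine and human serum, and viability was read as CellTiter-Glo luminescence relative to the median of 16 inner DMSO wells.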

[2] = tested on: primary B-PLL patient cells (S016)
Outline: as §1

[3] = tested on: primary AML patient cells (S081)
Outline: as §1

[4] = tested on: primary FL patient cells (S022)
Outline: as §1

[5] = tested on: primary MCL patient cells (S068)
Outline: as §1

[6] = tested on: primary AML patient cells (S009)
Outline: as §1

[7] = tested on: primary AML patient cells (S002)
Outline: as §1

[8] = tested on: primary AML patient cells (S085)
Outline: as §1

[9] = tested on: primary AML patient cells (S019)
Outline: as §1

[10] = tested on: primary AML patient cells (S011)
Outline: as §1

[11] = tested on: primary AML patient cells (S021)
Outline: as §1

[12] = tested on: primary FL patient cells (S087)
Outline: as §1

[13] = tested on: primary AML patient cells (S025)
Outline: as §1

[14] = tested on: primary MCL patient cells (S041)
Outline: as §1

[15] = tested on: primary BL patient cells (S005)
Outline: as §1

[16] = tested on: primary AML patient cells (S012)
Outline: as §1

[17] = tested on: primary AML patient cells (S037)
Outline: as §1

[18] = tested on: primary T-PLL patient cells (S008)
Outline: as §1

[19] = tested on: primary MCL patient cells (S053)
Outline: as §1

[20] = tested on: primary AML patient cells (S091)
Outline: as §1

CN1CC[C@H](c2c(O)cc(O)c3c(=O)cc(-c4ccccc4Cl)oc23)[C@H](O)C1 [Flavopiridol]
viability ([1]; 0.0032 µM): 1
viability ([1]; 0.016 µM): 0.986
viability ([1]; 0.08 µM): 0.96
viability ([1]; 0.4 µM): 0.18
viability ([1]; 2 µM): 0.0397
viability ([2]; 0.0032 µM): 0.932
viability ([2]; 0.016 µM): 0.862
viability ([2]; 0.08 µM): 0.959
viability ([2]; 0.4 µM): 0.217
viability ([2]; 2 µM): 0.0227
viability ([3]; 0.0032 µM): 1.01
viability ([3]; 0.016 µM): 0.873
viability ([3]; 0.08 µM): 0.766
viability ([3]; 0.4 µM): 0.0954
viability ([3]; 2 µM): 0.0215
viability ([4]; 0.0032 µM): 1.04
viability ([4]; 0.016 µM): 0.958
viability ([4]; 0.08 µM): 0.995
viability ([4]; 0.4 µM): 0.227
viability ([4]; 2 µM): 0.187
viability ([5]; 0.0032 µM): 0.98
viability ([5]; 0.016 µM): 0.982
viability ([5]; 0.08 µM): 0.82
viability ([5]; 0.4 µM): 0.0704
viability ([5]; 2 µM): 0.0301
viability ([6]; 0.0032 µM): 0.95
viability ([6]; 0.016 µM): 0.898
viability ([6]; 0.08 µM): 0.619
viability ([6]; 0.4 µM): 0.199
viability ([6]; 2 µM): 0.0899
viability ([7]; 0.0032 µM): 1.02
viability ([7]; 0.016 µM): 0.927
viability ([7]; 0.08 µM): 0.69
viability ([7]; 0.4 µM): 0.241
viability ([7]; 2 µM): 0.244
viability ([8]; 0.0032 µM): 0.86
viability ([8]; 0.016 µM): 0.858
viability ([8]; 0.08 µM): 0.651
viability ([8]; 0.4 µM): 0.0968
viability ([8]; 2 µM): 0.0387
viability ([9]; 0.0032 µM): 1.08
viability ([9]; 0.016 µM): 0.769
viability ([9]; 0.08 µM): 0.961
viability ([9]; 0.4 µM): 0.198
viability ([9]; 2 µM): 0.0784
viability ([10]; 0.0032 µM): 0.859
viability ([10]; 0.016 µM): 0.754
viability ([10]; 0.08 µM): 0.715
viability ([10]; 0.4 µM): 0.0633
viability ([10]; 2 µM): 0.0225
viability ([11]; 0.0032 µM): 0.974
viability ([11]; 0.016 µM): 0.852
viability ([11]; 0.08 µM): 0.676
viability ([11]; 0.4 µM): 0.292
viability ([11]; 2 µM): 0.124
viability ([12]; 0.0032 µM): 0.967
viability ([12]; 0.016 µM): 0.91
viability ([12]; 0.08 µM): 1
viability ([12]; 0.4 µM): 0.644
viability ([12]; 2 µM): 0.638
viability ([13]; 0.0032 µM): 0.958
viability ([13]; 0.016 µM): 0.861
viability ([13]; 0.08 µM): 0.691
viability ([13]; 0.4 µM): 0.13
viability ([13]; 2 µM): 0.0473
viability ([14]; 0.0032 µM): 1.01
viability ([14]; 0.016 µM): 0.914
viability ([14]; 0.08 µM): 0.892
viability ([14]; 0.4 µM): 0.0723
viability ([14]; 2 µM): 0.0378
viability ([15]; 0.0032 µM): 0.794
viability ([15]; 0.016 µM): 1.26
viability ([15]; 0.08 µM): 0.644
viability ([15]; 0.4 µM): 0.534
viability ([15]; 2 µM): 0.983
viability ([16]; 0.0032 µM): 0.979
viability ([16]; 0.016 µM): 0.904
viability ([16]; 0.08 µM): 0.869
viability ([16]; 0.4 µM): 0.151
viability ([16]; 2 µM): 0.0418
viability ([17]; 0.0032 µM): 0.979
viability ([17]; 0.016 µM): 0.948
viability ([17]; 0.08 µM): 0.914
viability ([17]; 0.4 µM): 0.633
viability ([17]; 2 µM): 0.328
viability ([18]; 0.0032 µM): 0.953
viability ([18]; 0.016 µM): 1.03
viability ([18]; 0.08 µM): 0.916
viability ([18]; 0.4 µM): 0.804
viability ([18]; 2 µM): 0.0718
viability ([19]; 0.0032 µM): 1.02
viability ([19]; 0.016 µM): 0.938
viability ([19]; 0.08 µM): 0.951
viability ([19]; 0.4 µM): 0.469
viability ([19]; 2 µM): 0.627
viability ([20]; 0.0032 µM): 0.917
viability ([20]; 0.016 µM): 0.921
viability ([20]; 0.08 µM): 0.604
viability ([20]; 0.4 µM): 0.113
viability ([20]; 2 µM): 0.0958

Nc1nc(F)nc2c1ncn2[C@@H]1O[C@H](CO)[C@@H](O)[C@@H]1O [Fludarabine]
viability ([1]; 0.016 µM): 1.05
viability ([1]; 0.08 µM): 1.03
viability ([1]; 0.4 µM): 1.07
viability ([1]; 2 µM): 0.854
viability ([1]; 10 µM): 0.534
viability ([2]; 0.016 µM): 1.08
viability ([2]; 0.08 µM): 1.01
viability ([2]; 0.4 µM): 0.929
viability ([2]; 2 µM): 0.535
viability ([2]; 10 µM): 0.0968
viability ([3]; 0.016 µM): 1.1
viability ([3]; 0.08 µM): 1.05
viability ([3]; 0.4 µM): 1.1
viability ([3]; 2 µM): 1.02
viability ([3]; 10 µM): 0.89
viability ([4]; 0.016 µM): 1.09
viability ([4]; 0.08 µM): 1.01
viability ([4]; 0.4 µM): 0.916
viability ([4]; 2 µM): 0.757
viability ([4]; 10 µM): 0.504
viability ([5]; 0.016 µM): 1.01
viability ([5]; 0.08 µM): 0.961
viability ([5]; 0.4 µM): 0.804
viability ([5]; 2 µM): 0.463
viability ([5]; 10 µM): 0.194
viability ([6]; 0.016 µM): 0.952
viability ([6]; 0.08 µM): 0.86
viability ([6]; 0.4 µM): 0.59
viability ([6]; 2 µM): 0.402
viability ([6]; 10 µM): 0.359
viability ([7]; 0.016 µM): 1.27
viability ([7]; 0.08 µM): 1.07
viability ([7]; 0.4 µM): 0.9
viability ([7]; 2 µM): 0.457
viability ([7]; 10 µM): 0.313
viability ([8]; 0.016 µM): 1.02
viability ([8]; 0.08 µM): 1.05
viability ([8]; 0.4 µM): 0.561
viability ([8]; 2 µM): 0.172
viability ([8]; 10 µM): 0.112
viability ([9]; 0.016 µM): 1.17
viability ([9]; 0.08 µM): 0.967
viability ([9]; 0.4 µM): 0.605
viability ([9]; 2 µM): 0.301
viability ([9]; 10 µM): 0.181
viability ([10]; 0.016 µM): 0.942
viability ([10]; 0.08 µM): 0.773
viability ([10]; 0.4 µM): 0.543
viability ([10]; 2 µM): 0.255
viability ([10]; 10 µM): 0.0686
viability ([11]; 0.016 µM): 1.04
viability ([11]; 0.08 µM): 0.882
viability ([11]; 0.4 µM): 0.579
viability ([11]; 2 µM): 0.277
viability ([11]; 10 µM): 0.183
viability ([12]; 0.016 µM): 1
viability ([12]; 0.08 µM): 0.979
viability ([12]; 0.4 µM): 0.871
viability ([12]; 2 µM): 0.661
viability ([12]; 10 µM): 0.463
viability ([13]; 0.016 µM): 1.09
viability ([13]; 0.08 µM): 0.901
viability ([13]; 0.4 µM): 0.506
viability ([13]; 2 µM): 0.275
viability ([13]; 10 µM): 0.169
viability ([14]; 0.016 µM): 1.05
viability ([14]; 0.08 µM): 1.01
viability ([14]; 0.4 µM): 0.993
viability ([14]; 2 µM): 0.647
viability ([14]; 10 µM): 0.149
viability ([15]; 0.016 µM): 0.972
viability ([15]; 0.08 µM): 1.18
viability ([15]; 0.4 µM): 0.943
viability ([15]; 2 µM): 0.905
viability ([15]; 10 µM): 1.05
viability ([16]; 0.016 µM): 1.02
viability ([16]; 0.08 µM): 0.979
viability ([16]; 0.4 µM): 0.987
viability ([16]; 2 µM): 0.921
viability ([16]; 10 µM): 0.753
viability ([17]; 0.016 µM): 1.25
viability ([17]; 0.08 µM): 0.999
viability ([17]; 0.4 µM): 1.18
viability ([17]; 2 µM): 0.643
viability ([17]; 10 µM): 0.455
viability ([18]; 0.016 µM): 0.988
viability ([18]; 0.08 µM): 1.02
viability ([18]; 0.4 µM): 0.942
viability ([18]; 2 µM): 0.761
viability ([18]; 10 µM): 0.373
viability ([19]; 0.016 µM): 1.02
viability ([19]; 0.08 µM): 0.928
viability ([19]; 0.4 µM): 0.638
viability ([19]; 2 µM): 0.238
viability ([19]; 10 µM): 0.156
viability ([20]; 0.016 µM): 0.958
viability ([20]; 0.08 µM): 1
viability ([20]; 0.4 µM): 0.737
viability ([20]; 2 µM): 0.405
viability ([20]; 10 µM): 0.361
